The values below come from article PMC8263253, “Agonist and antagonist properties of an insect GABA-gated chloride channel (RDL) are influenced by heterologous expression conditions” (PLoS ONE, 2021).

The EC50 is the midpoint of the concentration-response curve. The IC50 is the midpoint of a concentration-inhibition curve.

The experiment has as its target BtRDL (Bombus terrestris RDL GABA-gated chloride channel) (Bombus terrestris audax, UniProt A0A8F2J2P3). The experiment in a line: Two-electrode voltage-clamp recording of BtRDL expressed in Xenopus oocytes. The note with it: for IC50: IC50 for block of GABA responses. Type of experiment: cell-based.

Each structure is given as a SMILES string. Values joined by “and” are separate entries in the source; they are usually repeats but may differ in a detail not shown here. Identical values can stand only once.

Chain of BtRDL (Bombus terrestris RDL GABA-gated chloride channel) (A0A8F2J2P3 entry or part of it): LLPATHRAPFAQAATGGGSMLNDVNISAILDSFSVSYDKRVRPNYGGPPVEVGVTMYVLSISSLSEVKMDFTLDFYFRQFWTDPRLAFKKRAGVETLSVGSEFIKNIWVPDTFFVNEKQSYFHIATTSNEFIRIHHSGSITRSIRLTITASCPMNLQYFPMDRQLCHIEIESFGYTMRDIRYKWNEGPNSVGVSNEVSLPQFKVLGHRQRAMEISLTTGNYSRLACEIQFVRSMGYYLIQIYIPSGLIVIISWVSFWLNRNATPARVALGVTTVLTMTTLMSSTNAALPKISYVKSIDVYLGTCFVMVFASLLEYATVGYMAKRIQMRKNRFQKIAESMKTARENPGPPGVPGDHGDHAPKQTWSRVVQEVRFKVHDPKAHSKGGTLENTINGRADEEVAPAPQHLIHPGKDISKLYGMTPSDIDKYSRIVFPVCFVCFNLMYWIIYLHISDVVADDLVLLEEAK

Take `NCCCC(=O)O` [GABA, γ-aminobutyric acid]: the “maximum current (Imax) to GABA” value came out at 0.67 ± 0.04 μA (1 ng BtRDL cRNA lacking 3'UTR, 1–3 days post-injection) and 3.4 ± 0.6 μA (BtRDL 1 ng cRNA (+3'UTR) co-expressed with DmNACHO). The EC50 worked out at 4 ± 1.1 µM (GABA EC50, pGEMHE-BtRDL digested with NheI (3'UTR retained), 1 ng cRNA, three-days post-injection); 27.6 ± 1.6 µM (GABA EC50, pGEMHE-BtRDL digested with XbaI (3'UTR removed), 1 ng cRNA, three-days post-injection); 3.7 ± 0.4 µM (GABA EC50, pSP64GL-BtRDL cRNA containing 3'UTR, 1 ng, BtRDL expressed alone, three-days post-injection); 31.4 ± 2.1 µM (GABA EC50, pSP64GL-BtRDL cRNA lacking 3'UTR, 1 ng, three-days post-injection); 10.6 ± 1.1 µM (GABA apparent affinity EC50, BtRDL 1 ng cRNA (+3'UTR) + 10 ng cRNA CeRIC-3, Day 1); 5 ± 0.9 µM (GABA apparent affinity EC50, BtRDL 1 ng cRNA (+3'UTR) + 10 ng cRNA CeRIC-3, Day 2). The 50% effective concentration (EC50) (GABA apparent affinity EC50, BtRDL 1 ng cRNA (+3'UTR) + 10 ng cRNA CeRIC-3, Day 3) stood at 4.2 ± 1 µM; the EC50 (GABA apparent affinity EC50, BtRDL 1 ng cRNA (+3'UTR) + 10 ng cRNA DmNACHO, Day 1) amounted to 21 ± 1.1 µM; the EC50 (GABA apparent affinity EC50, BtRDL 1 ng cRNA (+3'UTR) + 10 ng cRNA DmNACHO, Day 2) amounted to 14.8 ± 1.1 µM; the EC50 (GABA apparent affinity EC50, BtRDL (+3'UTR), 1 ng cRNA, Day 2 post-injection) is 4.4 ± 0.7 µM; the EC50 (GABA apparent affinity EC50, BtRDL (+3'UTR), 1 ng cRNA, Day 3 post-injection) amounted to 3.9 ± 0.6 µM; the EC50 (GABA apparent affinity EC50, BtRDL (+3'UTR), 10 ng cRNA, Day 1 post-injection) came to 10.8 ± 1.2 µM. Also, the EC50 worked out at 2 ± 0.7 µM (GABA apparent affinity EC50, BtRDL (+3'UTR), 10 ng cRNA, Day 2 post-injection); 1.8 ± 0.4 µM (GABA apparent affinity EC50, BtRDL (+3'UTR), 10 ng cRNA, Day 3 post-injection); 29.7 ± 1.1 µM (GABA apparent affinity EC50, BtRDL (-3'UTR), 1 ng cRNA, Day 1 post-injection); 28.3 ± 1.1 µM (GABA apparent affinity EC50, BtRDL (-3'UTR), 1 ng cRNA, Day 2 post-injection); 29.4 ± 1 µM (GABA apparent affinity EC50, BtRDL (-3'UTR), 1 ng cRNA, Day 3 post-injection); 27.3 ± 1.1 µM (GABA apparent affinity EC50, BtRDL (-3'UTR), 10 ng cRNA, Day 1 post-injection). The EC50 (GABA apparent affinity EC50, BtRDL (-3'UTR), 10 ng cRNA, Day 2 post-injection) was found to be 10.8 ± 1 µM; the half-maximal effective concentration (EC50) (GABA apparent affinity EC50, BtRDL (-3'UTR), 10 ng cRNA, Day 3 post-injection) was 12.5 ± 1 µM; the EC50 (GABA apparent affinity EC50, BtRDL alone, 1 ng cRNA (+3'UTR), Day 2) amounted to 4.6 ± 0.9 µM; the 50% effective concentration (EC50) (apparent affinity for GABA, BtRDL populations with intermediate apparent affinities (summary in discussion)) is ~4 µM and ~12 µM; the half-maximal effective concentration (EC50) (apparent affinity for GABA, BtRDL receptors with high apparent affinity (summary in discussion)) was roughly 30 µM; the EC50 (apparent affinity for GABA, BtRDL receptors with low apparent affinity (summary in discussion)) is roughly 2 µM.

Consider `CC(C)c1cccc(C(C)C)c1O` [Propofol, propofol], for which the EC50 by setting is: (propofol apparent affinity (agonist activation), BtRDL with high apparent affinity for GABA (10 ng cRNA +3'UTR, three-days)) 82.9 ± 6.4 µM; (propofol apparent affinity (agonist activation), BtRDL with low apparent affinity for GABA (1 ng cRNA +3'UTR, one-day)) 198 ± 19.1 µM.

For the molecule `C=C(C)[C@@H]1[C@H]2OC(=O)[C@@H]1[C@]1(O)C[C@H]3O[C@]34C(=O)O[C@H]2[C@]14C` [picrotoxinin], the IC50 by setting is: (BtRDL with high apparent affinity for GABA (10 ng cRNA, pGEMHE NheI, three-days), EC50 concentration of GABA 1 μM) 14 ± 1.6 µM; (BtRDL with low apparent affinity for GABA (1 ng cRNA, pGEMHE XbaI, three-days), EC50 concentration of GABA 30 μM) 1.7 ± 0.3 µM.
